From patent US8129355B2, “Ketone ligands for modulating the expression of exogenous genes via an ecdysone receptor complex” (priority 2002, dated 2012)

Legend:
[1] = molecular target: T1, Gal4 DBD/AaEcR (DEF) with VP16-βRXR-E (Aedes aegypti, UniProt P49880); assay: cell-based; type: cell-based
T1 construct: The wildtype D, E, and F domains from mosquito Aedes aegypti EcR (“AaEcR-DEF”); expressed in transfected cells; host or cells: 3T3 cells, transient transfection (Superfect)
Protocol: 3T3 cells were trypsinized and plated at 2.5×10^3 cells/well on a 96-well plate. After incubation for 24 h at 37° C. under 5% CO2, cells were transfected with the Gal4 DBD/AaEcR (DEF) gene expression cassette and the reporter plasmid, pFRLuc, containing a 5XGAL4 response element and the firefly luciferase gene in serum free media using Superfect (Qiagen). After transfection for 4 h at 37° C., the cells were treated with ligand in serum media. […] Single dose testing was performed at 33 μM.

[2] = molecular target: T2, GAL4 DBD (1-147)-CfEcR(DEF)/VP16AD-βRXREF-LmUSPEF (Choristoneura fumiferana, UniProt O77240); assay: 27-63 assay: luciferase reporter gene expression in stable CHO cell clone 27-63
T2 sequence (O77240 191-513): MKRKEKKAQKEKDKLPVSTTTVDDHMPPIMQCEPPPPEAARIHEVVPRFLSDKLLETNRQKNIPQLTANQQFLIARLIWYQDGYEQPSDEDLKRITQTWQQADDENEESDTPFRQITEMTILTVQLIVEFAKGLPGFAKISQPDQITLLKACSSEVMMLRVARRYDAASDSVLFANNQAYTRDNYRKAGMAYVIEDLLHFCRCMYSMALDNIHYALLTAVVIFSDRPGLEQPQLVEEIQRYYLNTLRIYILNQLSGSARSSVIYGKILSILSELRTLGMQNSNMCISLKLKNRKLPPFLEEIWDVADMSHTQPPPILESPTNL
T2 sequence (P28702 296-455 partner limits assumed): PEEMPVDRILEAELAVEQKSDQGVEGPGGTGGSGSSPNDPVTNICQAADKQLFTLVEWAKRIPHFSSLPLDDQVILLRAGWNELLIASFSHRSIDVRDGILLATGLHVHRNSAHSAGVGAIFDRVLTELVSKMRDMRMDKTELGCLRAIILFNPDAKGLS
Description: GAL4 DBD (1-147)-CfEcR(DEF)/VP16AD-βRXREF-LmUSPEF: The wild-type D, E, and F domains from spruce budworm Choristoneura fumiferana EcR (“CfEcR-DEF”; SEQ ID NO: 1) were fused to a GAL4 DNA binding domain (“Gal4 DBD1-147”; nucleotides 31 to 471 of SEQ ID NO: 2) and placed under the control of a phosphoglycerate kinase promoter (“PGK”; SEQ ID NO: 3). Helices 1 through 8 of the EF domains from Homo sapiens RXRβ and helices 9 through 12 of the EF domains of Locusta migratoria Ultraspiracle Protein (“HsRXRβ-EF-LmUSP-EF”; SEQ ID NO: 4) were fused to the transactivation domain from VP16 (“VP16AD”; SEQ ID NO: 5) and placed under the control of an elongation factor-1α promoter (“EF-1α”; SEQ ID NO: 6). Five consensus GAL4 response element binding sites (“5XGAL4RE”; comprising 5 copies of a GAL4RE comprising SEQ ID NO: 7) were fused to a synthetic TATA minimal promoter (SEQ ID NO: 8) and placed upstream of the luciferase reporter gene (SEQ ID NO: 9).
CHO cells were transiently transfected with transcription cassettes for GAL4 DBD (1-147) CfEcR(DEF) and for VP16AD βRXREF-LmUSPEF controlled by ubiquitously active cellular promoters (PGK and EF-1α, respectively) on a single plasmid. Stably transfected cells were selected by Zeocin resistance. Individually isolated CHO cell clones were transiently transfected with a GAL4 RE-luciferase reporter (pFR Luc). 27-63 clone was selected using Hygromycin.
Cells were trypsinized and diluted to a concentration of 2.5×10^4 cells mL. 100 μL of cell suspension was placed in each well of a 96 well plate and incubated at 37° C. under 5% CO2 for 24 h. Ligand stock solutions were prepared in DMSO and diluted 300 fold for all treatments. Dose response testing consisted of 8 concentrations ranging from 33 μM to 0.01 μM.
Luciferase reporter gene expression was measured 48 h after cell treatment using Bright-Glo™ Luciferase Assay System from Promega (E2650). Luminescence was detected at room temperature using a Dynex MLX microtiter plate luminometer.
Fold inductions were calculated from single dose testing by dividing relative light units (RLU) in ligand treated cells by RLU in DMSO treated cells. BC50s were calculated from dose response data using a three-parameter logistic model.

[3] = maximum fold induction at any concentration relative to that of GS-E ligand

T1 sequence (P28704 286-520 A311G/G315S/G445S/I449V): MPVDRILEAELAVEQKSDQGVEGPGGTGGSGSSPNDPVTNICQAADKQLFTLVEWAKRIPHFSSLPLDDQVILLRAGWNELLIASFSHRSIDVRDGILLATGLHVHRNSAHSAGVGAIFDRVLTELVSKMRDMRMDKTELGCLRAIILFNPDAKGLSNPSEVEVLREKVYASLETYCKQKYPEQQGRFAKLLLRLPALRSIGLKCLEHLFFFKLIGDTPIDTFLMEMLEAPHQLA
T1 sequence (P49880 405-776): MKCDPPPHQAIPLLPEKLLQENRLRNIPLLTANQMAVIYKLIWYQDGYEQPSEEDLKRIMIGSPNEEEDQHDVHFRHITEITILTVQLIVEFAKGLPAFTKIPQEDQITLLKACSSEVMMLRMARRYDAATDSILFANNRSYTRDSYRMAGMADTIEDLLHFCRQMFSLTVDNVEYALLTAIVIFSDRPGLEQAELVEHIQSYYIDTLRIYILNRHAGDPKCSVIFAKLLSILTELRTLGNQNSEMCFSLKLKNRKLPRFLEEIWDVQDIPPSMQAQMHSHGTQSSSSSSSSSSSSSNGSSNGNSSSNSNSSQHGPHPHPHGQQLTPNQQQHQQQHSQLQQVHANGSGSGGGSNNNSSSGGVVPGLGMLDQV

**Q.** How did the LC50 (half-maximal ligand concentration for reporter induction) ([1]; average, dose response 33 μM to 0.01 μM, three-parameter logistic model, read-out: AA_3T3 LC50) turn out when `CCc1ccc(C(=O)NC2(C(=O)c3cc(C)cc(C)c3)CCCC2)cc1` [Example 138] was run?
**A.** ~4.7 µM

**Q.** What about the “AA_3T3 Rel Max FI” value [1, 3] of the same compound?
**A.** 0.22

**Q.** And the “Fold Induction Average, AA_3T3 Assay (33 μM)” value ([1]; single dose 33 μM, RLU ligand treated / RLU DMSO treated cells)?
**A.** 2134

**Q.** What about the “27-63 Rel Max FI” value [2, 3] of the same compound?
**A.** 0.75

**Q.** What about the CC50 ([2]; read-out: 27-63 LC50, average, dose response, three-parameter logistic model) of the same compound?
**A.** 3.59 µM
